Key:
Puccinia triticina = experiment: Wheat brown rust (PUCCRT) disease control on wheat seedlings; format: in vivo; parameters: key to PUCCRT 3DC, HV activity at 100 ppm (% control rating) / PUCCRT disease control, 3DC / PUCCRT 1DP disease control rating, HV activity / PUCCRT 3DC disease control rating, HV activity / PUCCRT 3DC, LV activity at 125.1 g/H (% Control rating) / PUCCRT 1DP, LV activity at 125.1 g/H (% Control rating) / PUCCRT 3DC disease control rating, LV activity at 125.1 g/H / PUCCRT 1DP disease control rating, LV activity at 125.1 g/H / PUCCRT 3DC disease control rating, HV activity at 100 ppm / PUCCRT 1DP disease control rating, HV activity at 100 ppm / HV activity at 100 ppm PUCCRT 3DC (disease control rating) / LV activity at 125.1 g/H PUCCRT 1DP (disease control rating) / LV activity at 125.1 g/H PUCCRT 3DC (disease control rating): A: > 80; B: ≤ 80; C: Not Tested; D: No Activity Observed in the Reported Assay; conditions: for PUCCRT 1DP disease control rating, HV activity / PUCCRT 3DC disease control rating, HV activity: HV application at 100 ppm, wheat brown rust
Experimental: All fungicides were evaluated using the aforementioned method for their activity vs. all target diseases, unless stated otherwise. Wheat leaf blotch and brown rust activity were also evaluated using track spray applications, in which case the fungicides were formulated as EC formulations, containing 0.1% Trycol 5941 in the spray solutions. Wheat plants (variety Yuma) were grown from seed in a greenhouse in 50% mineral soil/50% soil-less Metro mix until the first leaf was fully emerged, with 7-10 seedlings per pot. These plants were inoculated with an aqueous spore suspension of Zymoseptoria tritici either prior to or after fungicide treatments. After inoculation the plants were kept in 100% relative humidity (one day in a dark dew chamber followed by two to three days in a lighted dew chamber at 20° C.) to permit spores to germinate and infect the leaf. The plants were then transferred to a greenhouse set at 20° C. for disease to develop. When disease symptoms were fully expressed on the 1st leaves of untreated plants, infection levels were assessed on a scale of 0 to 100 percent disease severity. Percent disease control was calculated using the ratio of disease severity on treated plants relative to untreated plants. Example B: Evaluation of Fungicidal Activity: Wheat Brown Rust (Puccinia triticina; Synonym: Puccinia recondita f. sp. Tritici; Bayer Code PUCCRT) Wheat plants (variety Yuma) were grown from seed in a greenhouse in 50% mineral soil/50% soil-less Metro mix until the first leaf was fully emerged, with 7-10 seedlings per pot. These plants were inoculated with an aqueous spore suspension of Puccinia triticina either prior to or after fungicide treatments. […] The plants were then transferred to a greenhouse set at 24° C. for disease to develop. Fungicide formulation, application and disease assessment followed the procedures as described in the Example A.

Zymoseptoria tritici = experiment: Leaf blotch of wheat (SEPTTR) disease control on wheat seedlings; format: in vivo; parameters: key to SEPTTR 1DP, HV activity at 100 ppm (% control rating) / SEPTTR 3DC, HV activity at 100 ppm (% control rating) / SEPTTR disease control, 1DP / SEPTTR disease control, 3DC / SEPTTR 1DP disease control rating, HV activity / SEPTTR 3DC disease control rating, HV activity / SEPTTR 3DC, LV activity at 125.1 g/H (% Control rating) / SEPTTR 1DP, LV activity at 125.1 g/H (% Control rating) / SEPTTR 1DP disease control rating, LV activity at 125.1 g/H / SEPTTR 3DC disease control rating, LV activity at 125.1 g/H / SEPTTR 3DC disease control rating, HV activity at 100 ppm / SEPTTR 1DP disease control rating, HV activity at 100 ppm / HV activity at 100 ppm SEPTTR 3DC (disease control rating) / HV activity at 100 ppm SEPTTR 1DP (disease control rating) / LV activity at 125.1 g/H SEPTTR 1DP (disease control rating) / LV activity at 125.1 g/H SEPTTR 3DC (disease control rating): A: > 80; B: ≤ 80; C: Not Tested; D: No Activity Observed in the Reported Assay; conditions: for SEPTTR 1DP disease control rating, HV activity / SEPTTR 3DC disease control rating, HV activity: HV application at 100 ppm, wheat leaf blotch
Experimental: All fungicides were evaluated using the aforementioned method for their activity vs. all target diseases, unless stated otherwise. Wheat leaf blotch and brown rust activity were also evaluated using track spray applications, in which case the fungicides were formulated as EC formulations, containing 0.1% Trycol 5941 in the spray solutions. Wheat plants (variety Yuma) were grown from seed in a greenhouse in 50% mineral soil/50% soil-less Metro mix until the first leaf was fully emerged, with 7-10 seedlings per pot. These plants were inoculated with an aqueous spore suspension of Zymoseptoria tritici either prior to or after fungicide treatments. After inoculation the plants were kept in 100% relative humidity (one day in a dark dew chamber followed by two to three days in a lighted dew chamber at 20° C.) to permit spores to germinate and infect the leaf. The plants were then transferred to a greenhouse set at 20° C. for disease to develop. When disease symptoms were fully expressed on the 1st leaves of untreated plants, infection levels were assessed on a scale of 0 to 100 percent disease severity. Percent disease control was calculated using the ratio of disease severity on treated plants relative to untreated plants.

[1] = HV activity at 100 ppm, 1 Day Protectant, wheat
[2] = HV activity at 100 ppm, 3 Day Curative, wheat
[3] = high volume application, 100 ppm, 1DP
[4] = high volume application, 100 ppm, 3DC

`CCCOC(CC)C(Oc1ccccc1)C(C)OC(=O)C(CC)NC(=O)c1nccc(OC)c1O` (centres unmarked) [Cmpd 296] was tested, and the “PUCCRT disease control, 1DP” value (Puccinia triticina; [1]) was “B (≤ 80)”, the “PUCCRT disease control, 3DC” value (Puccinia triticina; [2]) was “A (> 80)” and the “PUCCRT 1DP disease control rating, HV activity” value (Puccinia triticina; 1 Day Protectant) was “B (≤ 80)”. The “PUCCRT 3DC disease control rating, HV activity” value (Puccinia triticina; 3 Day Curative) was “A (> 80)”, the “PUCCRT 1DP, HV activity at 100 ppm (% control rating)” value (Puccinia triticina; [3]) was “B (≤ 80)” and the “PUCCRT 3DC, HV activity at 100 ppm (% control rating)” value (Puccinia triticina; [4]) was “A (> 80)”. The “SEPTTR disease control, 1DP” value (Zymoseptoria tritici; [1]) was “B (≤ 80)”, the “SEPTTR disease control, 3DC” value (Zymoseptoria tritici; [2]) was “B (≤ 80)” and the “SEPTTR 1DP disease control rating, HV activity” value (Zymoseptoria tritici; 1 Day Protectant) was “B (≤ 80)”. The “SEPTTR 3DC disease control rating, HV activity” value (Zymoseptoria tritici; 3 Day Curative) was “B (≤ 80)”, the “SEPTTR 1DP, HV activity at 100 ppm (% control rating)” value (Zymoseptoria tritici; [3]) was “B (≤ 80)” and the “SEPTTR 3DC, HV activity at 100 ppm (% control rating)” value (Zymoseptoria tritici; [4]) was “B (≤ 80)”.

`CC[C@@H](CCOC)[C@@H](Oc1ccccc1)[C@H](C)OC(=O)[C@H](C)NC(=O)c1nccc(OC)c1O` [Cmpd 305] was tested, and the “PUCCRT 1DP disease control rating, HV activity” value (Puccinia triticina; 1 Day Protectant) was “A (> 80)”, the “PUCCRT 3DC disease control rating, HV activity” value (Puccinia triticina; 3 Day Curative) was “A (> 80)” and the “SEPTTR 1DP disease control rating, HV activity” value (Zymoseptoria tritici; 1 Day Protectant) was “A (> 80)”. For the same compound, the “SEPTTR 3DC disease control rating, HV activity” value (Zymoseptoria tritici; 3 Day Curative) was “A (> 80)”.

In the case of `CCC(CC)[C@@H](Oc1ccccc1)[C@H](C)OC(=O)[C@H](C)NC(=O)c1nccc(OC)c1O` [Cmpd 306], the “PUCCRT 1DP disease control rating, HV activity” value (Puccinia triticina; 1 Day Protectant) is reported as “A (> 80)”, the “PUCCRT 3DC disease control rating, HV activity” value (Puccinia triticina; 3 Day Curative) is reported as “A (> 80)” and the “SEPTTR 1DP disease control rating, HV activity” value (Zymoseptoria tritici; 1 Day Protectant) is reported as “A (> 80)”. The “SEPTTR 3DC disease control rating, HV activity” value (Zymoseptoria tritici; 3 Day Curative) was “A (> 80)”.

`CCC(CC)[C@@H](Oc1ccccc1)[C@H](C)OC(=O)CNC(=O)c1nccc(OC)c1O` [Cmpd 307] was tested, and the “PUCCRT 1DP disease control rating, HV activity” value (Puccinia triticina; 1 Day Protectant) was “A (> 80)”, the “PUCCRT 3DC disease control rating, HV activity” value (Puccinia triticina; 3 Day Curative) was “A (> 80)” and the “SEPTTR 1DP disease control rating, HV activity” value (Zymoseptoria tritici; 1 Day Protectant) was “D”. For the same compound, the “SEPTTR 3DC disease control rating, HV activity” value (Zymoseptoria tritici; 3 Day Curative) was “A (> 80)”.

With `CC[C@@H](CCOC)[C@@H](Oc1ccccc1)[C@H](C)OC(=O)[C@@H](C)NC(=O)c1nccc(OC)c1O` [Cmpd 308] the “PUCCRT 1DP disease control rating, HV activity” value (Puccinia triticina; 1 Day Protectant) was “D”, the “PUCCRT 3DC disease control rating, HV activity” value (Puccinia triticina; 3 Day Curative) was “D” and the “SEPTTR 1DP disease control rating, HV activity” value (Zymoseptoria tritici; 1 Day Protectant) was “D”. For the same compound, the “SEPTTR 3DC disease control rating, HV activity” value (Zymoseptoria tritici; 3 Day Curative) was “B (≤ 80)”.

For `CC[C@H](Oc1ccccc1)[C@@H](Oc1ccccc1)[C@H](C)OC(=O)[C@H](C)NC(=O)c1nccc(OC)c1O` [Cmpd 309], the “PUCCRT 1DP disease control rating, HV activity” value (Puccinia triticina; 1 Day Protectant) was “A (> 80)”, the “PUCCRT 3DC disease control rating, HV activity” value (Puccinia triticina; 3 Day Curative) was “A (> 80)” and the “SEPTTR 1DP disease control rating, HV activity” value (Zymoseptoria tritici; 1 Day Protectant) was “A (> 80)”. For the same compound, the “SEPTTR 3DC disease control rating, HV activity” value (Zymoseptoria tritici; 3 Day Curative) was “B (≤ 80)”.

With `CCCOC[C@@H](Oc1ccccc1)[C@H](C)OC(=O)[C@H](C)NC(=O)c1nccc(OC)c1O` [Cmpd 310] the “PUCCRT 1DP disease control rating, HV activity” value (Puccinia triticina; 1 Day Protectant) was “A (> 80)”, the “PUCCRT 3DC disease control rating, HV activity” value (Puccinia triticina; 3 Day Curative) was “A (> 80)” and the “SEPTTR 1DP disease control rating, HV activity” value (Zymoseptoria tritici; 1 Day Protectant) was “D”. The “SEPTTR 3DC disease control rating, HV activity” value (Zymoseptoria tritici; 3 Day Curative) was “B (≤ 80)”.

`CC[C@H](Cc1ccccc1)[C@@H](Oc1ccccc1)[C@H](C)OC(=O)[C@H](C)NC(=O)c1nccc(OC)c1O` [Cmpd 311] was tested, and the “PUCCRT 1DP disease control rating, HV activity” value (Puccinia triticina; 1 Day Protectant) was “A (> 80)”, the “PUCCRT 3DC disease control rating, HV activity” value (Puccinia triticina; 3 Day Curative) was “A (> 80)” and the “SEPTTR 1DP disease control rating, HV activity” value (Zymoseptoria tritici; 1 Day Protectant) was “A (> 80)”. The “SEPTTR 3DC disease control rating, HV activity” value (Zymoseptoria tritici; 3 Day Curative) was “B (≤ 80)”.

`CC[C@H](Cc1ccccc1)[C@@H](Oc1ccccc1)[C@H](C)OC(=O)CNC(=O)c1nccc(OC)c1O` [Cmpd 312] was tested, and the “PUCCRT 1DP disease control rating, HV activity” value (Puccinia triticina; 1 Day Protectant) was “A (> 80)”, the “PUCCRT 3DC disease control rating, HV activity” value (Puccinia triticina; 3 Day Curative) was “A (> 80)” and the “SEPTTR 1DP disease control rating, HV activity” value (Zymoseptoria tritici; 1 Day Protectant) was “D”. For the same compound, the “SEPTTR 3DC disease control rating, HV activity” value (Zymoseptoria tritici; 3 Day Curative) was “D”.

With `CC[C@@H](Cc1ccccc1)[C@H](Oc1ccccc1)[C@H](C)OC(=O)[C@H](C)NC(=O)c1nccc(OC)c1O` [Cmpd 313] the “PUCCRT 1DP disease control rating, HV activity” value (Puccinia triticina; 1 Day Protectant) was “A (> 80)”, the “PUCCRT 3DC disease control rating, HV activity” value (Puccinia triticina; 3 Day Curative) was “A (> 80)” and the “SEPTTR 1DP disease control rating, HV activity” value (Zymoseptoria tritici; 1 Day Protectant) was “A (> 80)”. The “SEPTTR 3DC disease control rating, HV activity” value (Zymoseptoria tritici; 3 Day Curative) was “B (≤ 80)”.

With `CCCOC[C@@H](Oc1ccccc1)[C@H](C)OC(=O)[C@H](CC)NC(=O)c1nccc(OC)c1O` [Cmpd 314] the “PUCCRT 1DP disease control rating, HV activity” value (Puccinia triticina; 1 Day Protectant) was “A (> 80)”, the “PUCCRT 3DC disease control rating, HV activity” value (Puccinia triticina; 3 Day Curative) was “B (≤ 80)” and the “SEPTTR 1DP disease control rating, HV activity” value (Zymoseptoria tritici; 1 Day Protectant) was “B (≤ 80)”. For the same compound, the “SEPTTR 3DC disease control rating, HV activity” value (Zymoseptoria tritici; 3 Day Curative) was “D”.

In the case of `COc1ccnc(C(=O)N[C@@H](C)C(=O)O[C@@H](C)[C@@H](COc2ccccc2)Oc2ccccc2)c1O` [Cmpd 315], the “PUCCRT 1DP disease control rating, HV activity” value (Puccinia triticina; 1 Day Protectant) is reported as “B (≤ 80)”, the “PUCCRT 3DC disease control rating, HV activity” value (Puccinia triticina; 3 Day Curative) is reported as “A (> 80)” and the “SEPTTR 1DP disease control rating, HV activity” value (Zymoseptoria tritici; 1 Day Protectant) is reported as “B (≤ 80)”. For the same compound, the “SEPTTR 3DC disease control rating, HV activity” value (Zymoseptoria tritici; 3 Day Curative) was “B (≤ 80)”.

From patent publication US20180000085A1, “USE OF PICOLINAMIDE COMPOUNDS WITH FUNGICIDAL ACTIVITY” (DOW AGROSCIENCES LLC, priority 2014, published 2018)
